# Read-outs that look alike come from different tables or passages of the source.
# Tests used:
# [1] = target: FL-SMARCA4 (Homo sapiens, UniProt P51532); assay: SMARCA4 ATPase activity assay (ADP-Glo, chicken mononucleosome substrate)
# [2] = target: T1, FL-SMARCA2 (full-length human SMARCA2 isoform 1) (Homo sapiens, UniProt P51531); assay: SMARCA2 ATPase activity assay (ADP-Glo, chicken mononucleosome substrate); format: biochemical; conditions: ATP 250 uM
# T1 construct: FLAG tag (YKDDDDK) (C); made in house; host or cells: Sf21 insect cells (baculovirus, pFastBacI)
# T1 sequence (P51531 with tags, fused parts or gaps): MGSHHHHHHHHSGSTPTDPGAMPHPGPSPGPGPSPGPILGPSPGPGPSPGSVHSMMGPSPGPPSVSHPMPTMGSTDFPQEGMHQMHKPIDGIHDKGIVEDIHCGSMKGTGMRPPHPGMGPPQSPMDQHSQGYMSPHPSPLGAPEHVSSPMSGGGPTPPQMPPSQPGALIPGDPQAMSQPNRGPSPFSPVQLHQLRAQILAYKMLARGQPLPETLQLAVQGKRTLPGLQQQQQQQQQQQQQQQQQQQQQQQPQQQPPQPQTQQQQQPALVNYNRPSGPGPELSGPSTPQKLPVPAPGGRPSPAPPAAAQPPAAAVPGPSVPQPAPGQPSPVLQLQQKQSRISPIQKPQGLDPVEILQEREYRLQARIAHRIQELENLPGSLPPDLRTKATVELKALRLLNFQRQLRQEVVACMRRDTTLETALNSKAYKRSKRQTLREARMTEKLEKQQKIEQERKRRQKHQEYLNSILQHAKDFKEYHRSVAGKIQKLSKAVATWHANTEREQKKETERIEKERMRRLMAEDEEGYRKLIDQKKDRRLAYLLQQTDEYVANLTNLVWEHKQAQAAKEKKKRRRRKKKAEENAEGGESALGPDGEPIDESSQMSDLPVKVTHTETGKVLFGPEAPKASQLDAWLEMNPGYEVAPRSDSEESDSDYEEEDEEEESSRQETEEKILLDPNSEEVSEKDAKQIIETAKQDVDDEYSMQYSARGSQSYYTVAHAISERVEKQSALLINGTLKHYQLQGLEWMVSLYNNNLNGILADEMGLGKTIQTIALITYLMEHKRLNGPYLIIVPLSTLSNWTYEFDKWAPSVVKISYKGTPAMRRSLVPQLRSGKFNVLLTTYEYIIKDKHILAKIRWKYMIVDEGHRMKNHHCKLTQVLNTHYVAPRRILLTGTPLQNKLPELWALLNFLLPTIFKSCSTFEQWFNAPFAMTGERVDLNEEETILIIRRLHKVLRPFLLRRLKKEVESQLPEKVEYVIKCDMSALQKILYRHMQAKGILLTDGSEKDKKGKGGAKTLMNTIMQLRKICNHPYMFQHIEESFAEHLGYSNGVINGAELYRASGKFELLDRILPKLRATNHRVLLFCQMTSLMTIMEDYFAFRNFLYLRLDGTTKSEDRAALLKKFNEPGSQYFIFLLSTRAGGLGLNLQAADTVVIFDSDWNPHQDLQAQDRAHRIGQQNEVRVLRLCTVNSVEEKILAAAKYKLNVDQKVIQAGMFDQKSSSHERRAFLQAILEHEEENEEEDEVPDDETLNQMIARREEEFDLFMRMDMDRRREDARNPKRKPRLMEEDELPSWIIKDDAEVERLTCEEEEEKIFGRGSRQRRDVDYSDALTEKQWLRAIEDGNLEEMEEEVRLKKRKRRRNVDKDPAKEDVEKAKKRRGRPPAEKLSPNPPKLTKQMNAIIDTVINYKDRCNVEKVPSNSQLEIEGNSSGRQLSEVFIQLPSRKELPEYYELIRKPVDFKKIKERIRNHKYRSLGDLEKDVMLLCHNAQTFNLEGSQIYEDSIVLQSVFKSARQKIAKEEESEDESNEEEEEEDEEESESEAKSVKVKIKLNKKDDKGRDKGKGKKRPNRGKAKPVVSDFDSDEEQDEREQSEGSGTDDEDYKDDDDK
# Excerpt: Molecular Biology: Full-length human SMARCA2 isoform 1 (P51531) transcript clone was amplified from a cDNA library incorporating an N-terminal HIS tag ([…]) fused directly to Ser2 of SMARCA2 and a C-FLAG tag (YKDDDDK) fused directly to Glu1590 of SMARCA2. The amplified gene was subcloned into pFastBacI (Life Technologies).
# Protein Expression: Recombinant baculovirus were generated and protein over-expression was accomplished by infecting exponentially growing Sf21 insect cell culture at 1.24×10^6 cell/ml with an MOI of 0.1. Infections were carried out for 76 hours, harvested by centrifugation, and stored at −80° C. for purification.
# Expressed full-length SMARCA2 was purified from cell paste by FLAG affinity chromatography followed by anion exchange chromatography. The protein was dialyzed into a storage buffer containing 25 mM HEPES, 300 mM KCl, 10% Glycerol, pH 7.9, 1 mM TCEP and 0.01% Tween-20. The purity of the protein was measured as 74% using micro-capillary based gel electrophoresis.
# [3] = FL-SMARCA4 IC50, Table 3.2, ATPase assay, enzyme 5 nM, ATP 250 uM, chicken mononucleosome 10 nM, 30 min preincubation
# [4] = Table 3.1, ATPase assay, enzyme 5 nM, chicken mononucleosome 10 nM, 30 min preincubation
# [5] = Table 3d.1, ATPase assay, enzyme 5 nM, chicken mononucleosome 10 nM, 30 min preincubation, read-out: FL-SMARCA2 IC>50
# [6] = FL-SMARCA4 IC50, Table 3a.2, SMARCA4 5 nM, ATP 250 uM, mononucleosome 10 nM
# [7] = Table 3a.1, SMARCA2 5 nM, mononucleosome 10 nM
# [8] = FL-SMARCA4 IC50, Table 3b.2, SMARCA4 5 nM, ATP 250 uM, mononucleosome 10 nM
# [9] = Table 3b.1, SMARCA2 5 nM, mononucleosome 10 nM
# [10] = FL-SMARCA4 IC>50, Table 3c.2, ATPase assay, enzyme 5 nM, ATP 250 uM, chicken mononucleosome 10 nM, 30 min preincubation
# [11] = Table 3c.1, ATPase assay, enzyme 5 nM, chicken mononucleosome 10 nM, 30 min preincubation
# FL-SMARCA4, sequence (P51532 whole entry, canonical isoform): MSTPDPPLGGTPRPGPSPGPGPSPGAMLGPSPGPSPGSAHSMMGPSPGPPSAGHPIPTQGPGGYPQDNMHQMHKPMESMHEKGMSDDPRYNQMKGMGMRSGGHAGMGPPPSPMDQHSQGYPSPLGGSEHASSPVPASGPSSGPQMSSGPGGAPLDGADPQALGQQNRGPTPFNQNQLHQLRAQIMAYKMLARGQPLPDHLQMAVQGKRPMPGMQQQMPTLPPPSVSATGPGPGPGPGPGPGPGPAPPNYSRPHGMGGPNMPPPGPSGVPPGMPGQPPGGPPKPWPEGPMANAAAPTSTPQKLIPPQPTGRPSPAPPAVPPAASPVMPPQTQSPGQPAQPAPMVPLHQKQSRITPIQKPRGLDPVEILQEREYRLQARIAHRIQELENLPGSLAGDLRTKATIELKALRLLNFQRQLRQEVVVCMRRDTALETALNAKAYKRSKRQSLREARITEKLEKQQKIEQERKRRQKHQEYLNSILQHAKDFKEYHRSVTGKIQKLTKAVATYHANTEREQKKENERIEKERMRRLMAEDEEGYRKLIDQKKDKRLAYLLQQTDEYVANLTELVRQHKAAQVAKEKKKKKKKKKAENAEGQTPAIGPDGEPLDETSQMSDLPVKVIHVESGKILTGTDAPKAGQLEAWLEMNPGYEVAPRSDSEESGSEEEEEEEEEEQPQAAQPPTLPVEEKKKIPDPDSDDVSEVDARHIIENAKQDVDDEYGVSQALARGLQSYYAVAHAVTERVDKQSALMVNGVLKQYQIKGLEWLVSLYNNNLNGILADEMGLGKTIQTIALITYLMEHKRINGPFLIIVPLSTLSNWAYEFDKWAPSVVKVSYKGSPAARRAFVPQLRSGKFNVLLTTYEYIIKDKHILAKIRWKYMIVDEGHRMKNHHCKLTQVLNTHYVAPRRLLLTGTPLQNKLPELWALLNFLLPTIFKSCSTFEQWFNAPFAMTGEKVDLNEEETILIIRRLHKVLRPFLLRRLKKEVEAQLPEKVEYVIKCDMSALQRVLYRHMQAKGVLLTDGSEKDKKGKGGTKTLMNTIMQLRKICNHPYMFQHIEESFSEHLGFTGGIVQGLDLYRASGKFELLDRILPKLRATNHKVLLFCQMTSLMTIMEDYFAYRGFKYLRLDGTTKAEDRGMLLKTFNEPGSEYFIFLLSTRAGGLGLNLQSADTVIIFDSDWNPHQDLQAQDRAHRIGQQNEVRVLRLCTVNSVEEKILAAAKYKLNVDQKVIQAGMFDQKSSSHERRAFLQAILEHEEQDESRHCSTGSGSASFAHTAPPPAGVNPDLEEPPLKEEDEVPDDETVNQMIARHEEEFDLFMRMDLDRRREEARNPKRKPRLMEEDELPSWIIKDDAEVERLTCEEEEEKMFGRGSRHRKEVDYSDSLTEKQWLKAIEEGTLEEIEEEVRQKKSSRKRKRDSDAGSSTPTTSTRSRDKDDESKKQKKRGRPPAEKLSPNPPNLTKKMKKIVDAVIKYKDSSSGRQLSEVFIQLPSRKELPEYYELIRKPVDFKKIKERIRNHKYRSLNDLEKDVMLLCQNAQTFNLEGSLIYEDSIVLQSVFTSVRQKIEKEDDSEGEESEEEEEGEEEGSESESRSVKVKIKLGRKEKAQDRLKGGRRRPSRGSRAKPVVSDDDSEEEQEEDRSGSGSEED
"IC50 [1, 3] [µM]","IC50 [2, 4] [µM]",Compound,other results
5.6,2.04,CCn1cc(NC(=O)c2cc(C#N)[nH]n2)ccc1=O [Compound 175],–
–,–,O=C(Nc1cc(F)c(=O)n(CC(F)F)c1)c1cc(Cl)c(C#Cc2cccnc2)s1 [Compound 53d],"IC50 ([1]; FL-SMARCA4 IC50): > 50 µM; IC50 [2, 5]: > 50 µM"
–,–,CCn1cc(N(C)C(=O)c2cc(Cl)c(Cl)n2C)ccc1=O [Compound 71a],"IC50 [1, 6]: 39.6 µM; IC50 [2, 7]: 2.72 µM"
> 50,> 50,NS(=O)(=O)c1cc(C(=O)Nc2cc(F)c(=O)n(CCF)c2)sc1Cl [Compound 310],–
–,–,CCn1c(Cl)c(NC(=O)c2cc(Cl)c(Cl)s2)ccc1=O [Compound 27d],"IC50 ([1]; FL-SMARCA4 IC50): > 50 µM; IC50 [2, 5]: > 50 µM"
–,–,CCn1cc(NC(=O)c2cc(Cl)cc(Cl)c2)ccc1=O [Compound 5b],"IC50 [1, 8]: > 50 µM; IC50 [2, 9]: > 50 µM"
16.7,9.49,CCn1cc(NC(=O)c2cc(C#CCN(C)C)c(Cl)s2)ccc1=O [Compound 286],–
> 50,> 50,CCn1cc(NC(=O)c2cc(C(C)C)n(-c3ccccn3)n2)ccc1=O [Compound 10],–
–,–,CCn1cc(NC(=O)C2CCCC2)ccc1=O [Compound 11b],"IC50 [1, 8]: > 50 µM; IC50 [2, 9]: > 50 µM"
–,–,O=C(Nc1cc(F)c(=O)n(CC(F)F)c1)c1cc(C2COC2)cs1 [Compound 36c],"IC50 [1, 10]: > 50 µM; IC50 [2, 11]: > 50 µM"
–,–,O=C(Nc1cc(-c2cn[nH]c2)c(=O)n(CC(F)F)c1)c1cc(Cl)c(C(F)(F)F)s1 [Compound 110c],"IC50 [1, 10]: > 50 µM; IC50 [2, 11]: > 50 µM"
> 50,> 50,CCn1cc(NC(=O)c2cc(OC)c(OC)s2)ccc1=O [Compound 171],–
–,–,O=C(Nc1cc(F)c(=O)n(CC(F)F)c1)c1cc2c(s1)C(F)(F)CNC2 [Compound 114c],"IC50 [1, 10]: > 50 µM; IC50 [2, 11]: 30.5 µM"
–,–,O=C(Nc1cc(CO)c(=O)n(CC(F)F)c1)c1cc(F)c(Cl)s1 [Compound 12c],"IC50 [1, 10]: > 50 µM; IC50 [2, 11]: 34.8 µM"
> 50,> 50,CCn1cc(NC(=O)c2cc(Cl)c(Cl)s2)cc(Cc2ccccc2)c1=O [Compound 120],–
0.387,0.117,N#Cc1[nH]c(C(=O)Nc2ccc(=O)n(CC(F)F)c2)cc1Cl [Compound 294],–
–,–,O=C(Nc1ccc(=O)n(CC(F)(F)F)c1)c1nc2cc(Cl)c(Cl)cc2[nH]1 [Compound 43a],"IC50 [1, 6]: > 50 µM; IC50 [2, 7]: > 50 µM"
> 50,23.3,O=C(Nc1cc(F)c(=O)n(CCF)c1)c1cc(CO)c(Cl)s1 [Compound 308],–
0.759,0.194,O=C(Nc1cc(F)c(=O)n(CCF)c1)c1cc(Cl)c(Cl)[nH]1 [Compound 159],–
> 50,> 50,CCn1cc(NC(=O)c2cc(Cl)c(Cl)s2)cc(OC)c1=O [Compound 110],–

"IC50 [1, 3] [µM]","IC50 [2, 4] [µM]",Compound,other results
–,–,CCn1nc(NC(=O)c2cc(Cl)c(Cl)s2)ccc1=O [Compound 19d],"IC50 ([1]; FL-SMARCA4 IC50): > 50 µM; IC50 [2, 5]: > 50 µM"
–,–,CCn1cc(NC(=O)c2cccc(C)n2)ccc1=O [Compound 28a],"IC50 [1, 6]: > 50 µM; IC50 [2, 7]: > 50 µM"
> 50,> 50,Cn1cc(NC(=O)c2cnc(-c3ccco3)s2)cc(Cl)c1=O [Compound 12],–
–,–,O=C(Nc1cc(F)c(=O)n(CC(F)F)c1)c1cc2cc(-c3ccncc3)ccc2s1 [Compound 84c],"IC50 [1, 10]: 28.9 µM; IC50 [2, 11]: 1.85 µM"
–,–,O=C(Nc1cc(F)c(=O)n(CC(F)F)c1)[C@@H]1CCCN1 [Compound 15c],"IC50 [1, 10]: > 50 µM; IC50 [2, 11]: > 50 µM"
–,–,CN(C)CCCc1cc(NC(=O)c2cc(F)c(Cl)s2)cn(CC(F)F)c1=O [Compound 7c],"IC50 [1, 10]: > 50 µM; IC50 [2, 11]: > 50 µM"
11.6,2.63,CCn1cc(NC(=O)c2ccc(Cl)s2)ccc1=O [Compound 40],–
> 50,46.8,CCn1cc(NC(=O)c2cc(Cl)c(Cl)s2)cc(NC)c1=O [Compound 126],–
> 50,> 50,CCn1cc(NC(=O)c2ccc(C)n2C(F)F)ccc1=O [Compound 52],–
> 50,> 50,CCn1cc(NC(=O)c2cc(OC)c(O)s2)ccc1=O [Compound 179],–
> 50,–,CCn1cc(NC(=O)c2cc(C)n[nH]2)ccc1=O [Compound 27],–
41.8,16.7,O=C(Nc1cc(NCC2CCCN2)c(=O)n(CCF)c1)c1cc(Cl)c(Cl)s1 (stereo not drawn) [Compound 268],–
> 50,> 50,O=C(Nc1cc(F)c(=O)n(CCF)c1)c1ccc(C(F)(F)CO)s1 [Compound 322],–
–,–,O=C(Nc1ccc(=O)n(CC(F)(F)F)n1)c1cnc(Cl)s1 [Compound 23d],"IC50 ([1]; FL-SMARCA4 IC50): 15.3 µM; IC50 [2, 5]: 12.5 µM"
> 50,> 50,CCn1cc(NC(=O)c2ccc(Cl)o2)ccc1=O [Compound 20],–
–,–,Cc1nc(-c2ccc(C(=O)Nc3cc(F)c(=O)n(CC(F)F)c3)s2)cs1 [Compound 33d],"IC50 ([1]; FL-SMARCA4 IC50): > 50 µM; IC50 [2, 5]: > 50 µM"
0.443,0.147,CCn1cc(NC(=O)c2cnc(Cl)s2)cc(F)c1=O [Compound 130],–
1.47,0.388,CCn1cc(NC(=O)c2cc(Cl)c(C#N)n2C)cc(F)c1=O [Compound 174],–
–,–,Cc1cc(=O)n(C)cc1NC(=O)[C@@H]1CCCO[C@H]1c1cn[nH]c1 [Compound 7d],"IC50 ([1]; FL-SMARCA4 IC50): > 50 µM; IC50 [2, 5]: > 50 µM"
–,–,O=C(Nc1cc(F)c(=O)n(CCF)c1)c1ncccn1 [Compound 55a],"IC50 [1, 6]: > 50 µM; IC50 [2, 7]: > 50 µM"

"IC50 [1, 3] [µM]","IC50 [2, 4] [µM]",Compound,other results
–,11.1,CCn1cc(NC(=O)c2ccc(I)s2)ccc1=O [Compound 46],–
–,12.6,CCn1c(C(=O)Nc2ccc(=O)n(CC)c2)cc(Cl)c1Cl [Compound 42],–
–,> 50,O=C(Nc1ccc(=O)n(-c2ccccc2)c1)c1ccc(Br)s1 [Compound 50],–
> 50,–,CCn1cc(NC(=O)c2cn(C)nc2C(F)F)ccc1=O [Compound 28],–
> 50,–,CCn1cc(NC(=O)c2csc(C(F)(F)F)n2)ccc1=O [Compound 25],–
–,> 50,CCn1cc(NC(=O)c2cc(Cl)n(C)n2)ccc1=O [Compound 100],–
–,–,CCn1cc(NC(=O)c2cnc3ccccn23)ccc1=O [Compound 19a],"IC50 [2, 7]: > 50 µM"
–,> 50,CCn1cc(NC(=O)c2ncc(Br)s2)ccc1=O [Compound 49],–
> 50,–,CCn1cc(NC(=O)c2cc(C)oc2C)ccc1=O [Compound 23],–
–,–,N[C@H]1CC[C@H](C#Cc2cc(C(=O)Nc3cc(F)c(=O)n(CC(F)F)c3)sc2Cl)CC1 [Compound 66d],IC50 ([1]; FL-SMARCA4 IC50): 1.29 µM
–,> 50,CCn1cc(NC(=O)c2cnc(Cl)[nH]2)ccc1=O [Compound 99],–
> 50,–,CCn1cc(NC(=O)c2nc(Br)cs2)ccc1=O [Compound 30],–
–,> 50,Cn1c(C(=O)Nc2ccc(=O)n(C3CC3)c2)cc(Cl)c1Cl [Compound 41],–
> 50,–,CCn1cc(NC(=O)c2cn(C)nc2C(F)(F)F)ccc1=O [Compound 31],–
> 50,–,CCn1cc(NC(=O)c2csnn2)ccc1=O [Compound 29],–
–,28.5,CCn1cc(NC(=O)c2snc(Cl)c2Cl)ccc1=O [Compound 34],–
–,–,O=C(O)c1cccc(C#Cc2cc(C(=O)Nc3cc(F)c(=O)n(CC(F)F)c3)ccn2)c1 [Compound 132c],"IC50 [1, 10]: 11.3 µM"
> 50,–,CCn1cc(NC(=O)c2cc(C3CC3)on2)ccc1=O [Compound 24],–
–,43.1,CCn1cc(NC(=O)c2cc(Br)cs2)ccc1=O [Compound 45],–
0.635,–,N#Cc1cc(C(=O)Nc2cc(C#N)c(=O)n(CCF)c2)sc1Cl [Compound 321],–
